Our source for the relative viability values is the supplement of paper PMC10307832.

Holding throughout (assay): relative viability (nuclei count vs DMSO), 5 days (fraction); higher = more cells survive
Compound in experiment [1]: C1CC2=C(C1)C=C(C=C2)OC3=NC(=C4C(=N3)N(C=N4)CC5=CC=C(C=C5)C6=CC=CC=C6)N[C@@H](CC7=CC=CC=C7)CO [QS11] + CS(=O)(=O)CCNCc1ccc(-c2ccc3ncnc(Nc4ccc(OCc5cccc(F)c5)c(Cl)c4)c3c2)o1 [Lapatinib] (partner 2 µM)
In short, it runs like this:
(§1)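 Lung cancer cell lines in 1536-well plates got either a single drug or a fixed anchor-drug dose together with five library-drug doses (not always all listed) in √10 steps, by pin tool, on the day after seeding. Nuclei were counted after 5 days, and relative viability is the treated-to-vehicle ratio of nuclei counts. Values are medians of duplicate plates.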

Compound in experiment [2]: CC1=C(C=C(C=C1)NC(=O)C2=CC(=CC=C2)C(C)(C)C#N)NC3=CC4=C(C=C3)N=CN(C4=O)C [AZ628] + COc1cc2c(Oc3ccc(NC(=O)C4(C(=O)Nc5ccc(F)cc5)CC4)cc3F)ccnc2cc1OCCCN1CCOCC1 [Foretinib] (partner 0.25 µM)
A digest of the protocol: as §1

Compound in experiment [3]: C[As](C)SC[C@H](NC(=O)CC[C@H](N)C(=O)O)C(=O)NCC(=O)O [Darinaparsin] + C[C@@H](Oc1cc(-c2cnn(C3CCNCC3)c2)cnc1N)c1c(Cl)ccc(F)c1Cl [Crizotinib] (partner 1 µM)
A digest of the protocol: as §1

Compound in experiment [4]: C1CC2=C(C1)C=C(C=C2)OC3=NC(=C4C(=N3)N(C=N4)CC5=CC=C(C=C5)C6=CC=CC=C6)N[C@@H](CC7=CC=CC=C7)CO [QS11] + NC(=O)Nc1cc(-c2cccc(F)c2)sc1C(=O)N[C@H]1CCCNC1 [AZD7762] (partner 0.2 µM)
A digest of the protocol:
as §1

Compound in experiment [5]: C1CC2=C(C1)C=C(C=C2)OC3=NC(=C4C(=N3)N(C=N4)CC5=CC=C(C=C5)C6=CC=CC=C6)N[C@@H](CC7=CC=CC=C7)CO [QS11] + O=C(c1cc(Cc2n[nH]c(=O)c3ccccc23)ccc1F)N1CCN(C(=O)C2CC2)CC1 [Olaparib] (partner 8 µM)
In short, it runs like this:
as §1

Regarding LCLC-97TM1, the relative viability was found to be 0.484 in experiment [1] (first compound 0.08 µM); 1.12 in experiment [1] (first compound 0.253 µM); 0.96 in experiment [1] (first compound 0.8 µM); 1.24 in experiment [1] (first compound 2.53 µM); 0.673 in experiment [1] (first compound 8 µM); 0.95 in experiment [2] (first compound 0.08 µM). Further, the relative viability in experiment [2] (first compound 0.253 µM) came to 0.867; in experiment [2] (first compound 0.8 µM), 0.805; in experiment [2] (first compound 2.53 µM) it was 0.682; in experiment [2] (first compound 8 µM) it was 0.301; in experiment [3] (first compound 0.08 µM), 0.517; in experiment [3] (first compound 0.8 µM), 0.354. For the same cell line, the relative viability in experiment [3] (first compound 2.53 µM) was 0.271; in experiment [3] (first compound 8 µM) it was 0.372; in experiment [4] (first compound 0.253 µM) it was 0.192; in experiment [4] (first compound 2.53 µM), 0.27; in experiment [4] (first compound 8 µM), 0.418; in experiment [5] (first compound 0.253 µM), 0.428. The relative viability turned out to be 0.495 in experiment [5] (first compound 2.53 µM) and 0.464 in experiment [5] (first compound 8 µM).
